In patent EP1101492A1, “NOVEL REMEDIES FOR ALLERGIC DISEASES” (FUJI YAKUHIN KOGYO KABUSHIKI KAISHA, priority 1998, dated 2000):

Columns and labels:
[1] = test system: guinea pig allergic rhinitis models; experiment: Allergic rhinitis model: nasal airway resistance; type: in vivo, Guinea pigs; details: 15 mg/kg s.c. one hour prior to rhinitis-induction; N=5; recorded 20 minutes after antigen-challenge
Method: Guinea pigs (male, Std:Hartley, 3 weeks old) were housed and fed in a aluminum cage at a rate of up to 5 animals per cage. After acclimatization for 1 week, the guinea pigs were administered intravenously with an anti-ovalbumin antibody (Nihon Bioresearch Inc., Hajima Institute; antibody titer by a 3-hour homologous passive cutaneous anaphylaxis reaction, 1 : 8192) prepared according to the Orange & Moore method (Orange, R. P. and Moore, E. G., The Journal of Immunology 116: p.392-397, 1976) into their auricle vein at a dose of 0.3 mL/animal for passive sensitization. Twenty four to twenty six hours after sensitization under conditions of fast and free access to drinking water, the sensitized guinea pigs were anesthetized with urethane (1.2 g/kg, intraperitoneal administration), fixed in a supine position, and mediad excised cervically to expose tracheas. […] Variations of the ventilatory overflow were quantitatively recorded on a recticoder (RECTI-HORIZ-8K, Nippon Denki Sanei K.K.) for 20 minutes after antigen-challenge.
Wave height (cm) was measured on recorded papers and a nasal airway resistance value was calculated according to the following formula: Percent Increase (%) in Nasal Airway Resistance =((Observed Value) - (Value prior to Administration))/((Complete Obstruction)- (Value prior to Administration))× 100 [formula] […]

[2] = test system: mouse experimental atopic dermatitis models; experiment: Auricle edema in experimental atopic dermatitis model (anti-DNP IgE sensitization, DNFB elicitation); type: in vivo, Balb/c mice; details: for % Inhibition vLPR: auricle edema Day 7 post-elicitation

**Q.** What does the source list for `CNC(=O)[C@H](Cc1ccc(NC(=N)N)cc1)NC(=O)[C@H](CC(C)C)C(CCCc1ccccc1)C(=O)NO` (single isomer, unassigned) [Compound No. 130, N-[4-(N-Hydroxyamino)-2(R)-isobutyl-3(R or S)-(3-phenyltrimethylene)succinyl)-L-4'-guanidophenylalanine-N-methylamide 1 acetate]?
**A.** increase in nasal airway resistance due to antigen challenge (FIG. 15) [1]: markedly ameliorates an increase in nasal airway resistance; inhibitory efficacy on IgE-mediated auricle edema (FIG. 7) ([2]; 50 µg/ear/dose in ethanol painted twice a day, 1 hour pre-elicitation, 0.25, 3, 4, 5 and 6 days post-elicitation): endowed with an inhibitory activity on edemas in any of IPR, LPR, and vLPR; inhibitory efficacy on IgE-mediated auricle edema (FIG. 6) ([2]; 60 mg/kg s.c. 24 and 2 hours prior to elicitation only, compared with prednisolone 10 mg/kg i.p., IPR 1 hour, LPR 1 day, vLPR 7 days): edema-inhibitory activity equivalent to that of prednisolone in IPR and slightly and markedly higher than that of prednisolone in LPR and vLPR, respectively; % Inhibition IPR ([2]; auricle edema 1 hour post-elicitation, test compounds 60 mg/kg s.c., prednisolone 10 mg/kg i.p., once a day, 24 & 2 hours prior to DNFB-elicitation, vs untreated group): 64.4%; % Inhibition LPR ([2]; auricle edema Day 1 post-elicitation, test compounds 60 mg/kg s.c., prednisolone 10 mg/kg i.p., once a day, 24 & 2 hours prior to DNFB-elicitation, vs untreated group): 51.3%; % Inhibition vLPR ([2]; test compounds 60 mg/kg s.c., prednisolone 10 mg/kg i.p., daily from 3 to 6 days after DNFB-elicitation): 52.7%; % Inhibition vLPR ([2]; test compounds 60 mg/kg s.c., prednisolone 10 mg/kg i.p., daily from 1 day prior to through 5 days after DNFB-elicitation): 79.0%
